In PubChem BioAssay AID248 (DTP/NCI, 2004):
Where “and” joins values, the source holds several entries; their conditions need not be identical. Identical values can stand only once. Inconclusive results and toxic doses are left out. Cut-off read from the data, not from the text of the source: active = T/C of 150% or more; inactive = T/C below 125%.

Tested on: L1210 leukemia ip in BDF1 mice, survival T/C
Test: NCI In Vivo Anticancer Drug Screen. Data for tumor model L1210 Leukemia (intraperitoneal) in B6D2F1 (BDF1) mice
Conditions: endpoint: mean survival time, higher = longer survival
In short: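 Mice bearing the transplanted tumor received compound or vehicle. Survival of the treated group was divided by that of the vehicle-treated control group to give the ratio.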

[1] = dose: 100.0 mg/kg/injection, schedule: Q04DX003 (ip), vehicle: Klucel (hydroxypropylcellulose) (HPC)
[2] = dose: 200.0 mg/kg/injection, schedule: Q04DX003 (ip), vehicle: Klucel (hydroxypropylcellulose) (HPC)
[3] = dose: 400.0 mg/kg/injection, schedule: Q04DX003 (ip), vehicle: Klucel (hydroxypropylcellulose) (HPC)
[4] = dose: 100.0 mg/kg/injection, schedule: Q01DX001 (ip), vehicle: saline
[5] = dose: 100.0 mg/kg/injection, schedule: Q04DX003 (ip), vehicle: saline
[6] = dose: 200.0 mg/kg/injection, schedule: Q01DX001 (ip), vehicle: saline
[7] = dose: 200.0 mg/kg/injection, schedule: Q04DX003 (ip), vehicle: saline
[8] = dose: 400.0 mg/kg/injection, schedule: Q01DX001 (ip), vehicle: saline
[9] = dose: 50.0 mg/kg/injection, schedule: Q01DX009 (ip), vehicle: saline with Tween-80
[10] = dose: 100.0 mg/kg/injection, schedule: Q01DX009 (ip), vehicle: saline with Tween-80
[11] = dose: 200.0 mg/kg/injection, schedule: Q01DX009 (ip), vehicle: saline with Tween-80
[12] = dose: 100.0 mg/kg/injection, schedule: Q04DX003 (ip), vehicle: saline with Tween-80
[13] = dose: 200.0 mg/kg/injection, schedule: Q04DX003 (ip), vehicle: saline with Tween-80
[14] = dose: 400.0 mg/kg/injection, schedule: Q04DX003 (ip), vehicle: saline with Tween-80
[15] = dose: 400.0 mg/kg/injection, schedule: Q01DX009 (ip), vehicle: saline with Tween-80
[16] = dose: 100.0 mg/kg/injection, schedule: Q01DX009 (ip), vehicle: Klucel (hydroxypropylcellulose) (HPC)
[17] = dose: 200.0 mg/kg/injection, schedule: Q01DX009 (ip), vehicle: Klucel (hydroxypropylcellulose) (HPC)
[18] = dose: 400.0 mg/kg/injection, schedule: Q01DX009 (ip), vehicle: Klucel (hydroxypropylcellulose) (HPC)

Measured: T/C

CS(=O)(=O)OCCN(CCOS(C)(=O)=O)c1ccc(C=Nc2ccc3ccccc3c2)c(Cl)c1
inactive: [1] 103 % of control and 107 % of control | [2] 113 % of control | [3] 118 % of control

BrC1C2C=CC(C2)C1Br (stereo not given)
inactive: [1] 102 % of control | [2] 100 % of control | [3] 92 % of control

CCC(=O)c1ccc(OC(C)=O)c(OC(C)=O)c1
inactive: dose: 50.0 mg/kg/injection, schedule: Q01DX001 (ip), vehicle: saline 101 % of control | [4] 101 % of control | [5] 100 % of control | [6] 109 % of control | [7] 97 % of control | [8] 97 % of control | dose: 400.0 mg/kg/injection, schedule: Q04DX003 (ip), vehicle: saline 100 % of control

COc1ccc(/C=N\NC(=O)CNC(=O)Nc2cccc(Cl)c2)cc1O
inactive: [9] 95 % of control | [10] 92 % of control | [11] 92 % of control

CCCCCCCCCSCC
inactive: [12] 102 % of control | [13] 96 % of control | [14] 102 % of control

CCCCCCCCCC1CCC(C(=O)O)CC1 (stereo not given)
inactive: dose: 75.0 mg/kg/injection, schedule: Q01DX009 (ip), vehicle: Klucel (hydroxypropylcellulose) (HPC) 105 % of control | dose: 150.0 mg/kg/injection, schedule: Q01DX009 (ip), vehicle: Klucel (hydroxypropylcellulose) (HPC) 96 % of control | dose: 300.0 mg/kg/injection, schedule: Q01DX009 (ip), vehicle: Klucel (hydroxypropylcellulose) (HPC) 98 % of control

O=C(NC1CC2c3ccccc3C1c1ccccc12)NC1CC2c3ccccc3C1c1ccccc12 (stereo not given)
inactive: [1] 94 % of control | [2] 89 % of control | [3] 98 % of control

Cc1ccc2nc(-c3cccc([N+](=O)[O-])c3)oc(=O)c2c1
inactive: [12] 87 % of control | [13] 97 % of control | [14] 97 % of control

COc1ccc(/C(C#N)=C2C=C/C(=N\O)C(C)=C/2Cl)cc1
inactive: dose: 50.0 mg/kg/injection, schedule: Q01DX001 (ip), vehicle: carboxymethylcellulose (CMC) 109 % of control | dose: 100.0 mg/kg/injection, schedule: Q01DX001 (ip), vehicle: carboxymethylcellulose (CMC) 96 % of control | [12] 92 % of control | dose: 200.0 mg/kg/injection, schedule: Q01DX001 (ip), vehicle: carboxymethylcellulose (CMC) 93 % of control | [13] 106 % of control | dose: 400.0 mg/kg/injection, schedule: Q01DX001 (ip), vehicle: carboxymethylcellulose (CMC) 91 % of control | [14] 97 % of control

CCCCC(C)NC1=C(Cl)C(=O)c2ccccc2C1=O (stereo not given)
inactive: dose: 25.0 mg/kg/injection, schedule: Q01DX009 (ip), vehicle: saline with Tween-80 101 % of control | [9] 93 % of control | [10] 87 % of control

Oc1c(C(c2ccccc2)N2CCCC2)ccc2ccccc12 (stereo not given)
inactive: dose: 75.0 mg/kg/injection, schedule: Q04DX003 (ip), vehicle: saline with Tween-80 100 % of control | dose: 150.0 mg/kg/injection, schedule: Q04DX003 (ip), vehicle: saline with Tween-80 92 % of control | dose: 300.0 mg/kg/injection, schedule: Q04DX003 (ip), vehicle: saline with Tween-80 96 % of control

CC1CC(=O)NN1 (stereo not given)
inactive: [10] 94 % of control | [11] 90 % of control | [15] 96 % of control

CCN(CC)CCCC(C)NCCCN (stereo not given)
inactive: dose: 50.0 mg/kg/injection, schedule: Q01DX009 (ip), vehicle: saline 94 % of control | dose: 100.0 mg/kg/injection, schedule: Q01DX009 (ip), vehicle: saline 100 % of control and 106 % of control | [5] 90 % of control | dose: 200.0 mg/kg/injection, schedule: Q01DX009 (ip), vehicle: saline 104 % of control and 92 % of control | [7] 90 % of control

COc1cc(Cl)ccc1NC(=O)Oc1ccc(F)cc1Cl
inactive: [16] 104 % of control | [17] 108 % of control | [18] 106 % of control

O=C(Nc1ccc(Cl)cc1)Nc1cccc(F)c1
inactive: [16] 90 % of control | [17] 94 % of control | [18] 110 % of control

COc1cc2c(cc1OC)-c1c(=O)c3cc(OC)c(OC)cc3n([O-])[n+]1CC2
inactive: [4] 93 % of control | [6] 94 % of control | [8] 89 % of control

CC1(Cc2ccccc2)CCC(=O)O1 (stereo not given)
inactive: [10] 98 % of control | [12] 98 % of control | [11] 100 % of control | [13] 96 % of control | [15] 87 % of control | [14] 104 % of control

COc1cc(Oc2c(OC)cc(NC(C)=O)cc2OC)cc(OC)c1OC
inactive: [12] 94 % of control | [13] 97 % of control | [14] 95 % of control

c1ccc2cc(NCNc3ccc4ccccc4c3)ccc2c1
inactive: [4] 100 % of control | [6] 95 % of control | [8] 100 % of control

CC(C)(C)c1cc2c(cc1O)C(C)(C)CCC2(C)C
inactive: dose: 100.0 mg/kg/injection, schedule: Q04DX002 (ip), vehicle: Klucel (hydroxypropylcellulose) (HPC) 105 % of control | dose: 200.0 mg/kg/injection, schedule: Q04DX002 (ip), vehicle: Klucel (hydroxypropylcellulose) (HPC) 105 % of control | dose: 400.0 mg/kg/injection, schedule: Q04DX002 (ip), vehicle: Klucel (hydroxypropylcellulose) (HPC) 98 % of control

Cc1c([N+](=O)[O-])cc(I)cc1[N+](=O)[O-]
inactive: [12] 106 % of control | [13] 108 % of control | [14] 103 % of control

CCCCSCCOC(=O)C1C2CCC(O2)C1C(=O)O (stereo not given)
inactive: dose: 12.5 mg/kg/injection, schedule: Q04DX003 (ip), vehicle: Klucel (hydroxypropylcellulose) (HPC) 95 % of control | dose: 25.0 mg/kg/injection, schedule: Q04DX003 (ip), vehicle: Klucel (hydroxypropylcellulose) (HPC) 96 % of control

COc1ccc(S(=O)(=O)Nc2cccc(C(F)(F)F)c2)cc1
inactive: [16] 102 % of control | [17] 102 % of control | [18] 100 % of control

CCCCCCOC(=O)Nc1cccc2ccccc12
inactive: dose: 75.0 mg/kg/injection, schedule: Q01DX009 (ip), vehicle: saline 94 % of control | dose: 150.0 mg/kg/injection, schedule: Q01DX009 (ip), vehicle: saline 99 % of control | dose: 300.0 mg/kg/injection, schedule: Q01DX009 (ip), vehicle: saline 96 % of control

CCOC(=O)NCNC(=O)OCC
inactive: dose: 100.0 mg/kg/injection, schedule: Q01DX009 (ip), vehicle: saline sonified 104 % of control | dose: 100.0 mg/kg/injection, schedule: Q04DX003 (ip), vehicle: saline sonified 100 % of control | dose: 200.0 mg/kg/injection, schedule: Q01DX009 (ip), vehicle: saline sonified 95 % of control | dose: 200.0 mg/kg/injection, schedule: Q04DX003 (ip), vehicle: saline sonified 97 % of control | dose: 400.0 mg/kg/injection, schedule: Q01DX009 (ip), vehicle: saline sonified 91 % of control | dose: 400.0 mg/kg/injection, schedule: Q04DX003 (ip), vehicle: saline sonified 94 % of control
